These results are taken from US4853398A, “Leukotriene antagonists and use thereas” (Eli Lilly and Company, priority 1987, dated 1989).

The test deals with LTD4 evoked ileal contractions. Put plainly: LTD4 antagonism: inhibition of LTD4 evoked ileal contractions (isolated guinea pig ileum). Particulars: for -log IC50: 50% inhibition of LTD4 responses, interpolated by linear regression from 2-4 concentrations; for Percent inhibition of LTD4 evoked ileal contractions: isolated ileum, five minute exposure. Details: species or system guinea pig (male, Hartley). The method, then: Male, Hartley guinea pigs weighing 200-450 grams were killed by decapitation. A section of terminal ileum was removed, the lumen cleaned, and the tissue divided into 2.5 cm. segments. The ilea were mounted in 10 ml. tissue baths containing Krebs-bicarbonate solution of the following composition in mmoles/liter: KCl, 4.6; CaCl2.2H2 O, 1.2; KH2 PO4, 1.2; MgSO4.7H2 O, 1.2; NaCl, 118.2; NaHCO3, 24.8; and dextrose, 10.0. The bath fluid was maintained at 37° C. and aerated with 95 percent oxygen and 5 percent CO2. In addition, the buffer contained 1×10^-6 M atropine to reduce ileal spontaneous activity. Isometric measurements were made with a Grass FTO3C force-displacement transducer and recorded on a Grass polygraph as change in grams of force. A passive force of 0.5 g. was applied to the tissues. After an appropriate equilibration period, single submaximal control responses to pure LTD4 were obtained. Following a five minute exposure of the ileum to an experimental drug, the control concentration of LTD4 was added to the tissue bath. The response of the ileum to LTD4 in the presence of the drug was compared to the response in the absence of the drug. Various degrees of LTD4 antagonism were obtained using 2-4 different concentrations of an experimental compound on a single ileum.

Setting [1] is: compound concentration 3 × 10^-7 M.
Where [2] appears, read: compound concentration 3 × 10^-8 M.
[3] abbreviates: compound concentration 3 × 10^-9 M.
[4] abbreviates: compound concentration 1 × 10^-8 M.
Setting [5] is: compound concentration 1 × 10^-7 M.

For `CCCc1c(COc2ccc(C(=O)c3cccc(-c4nnn[nH]4)c3)cc2)ccc(C(C)=O)c1O` [Example 1, 1-[2-Hydroxy-3-propyl-4-({4-[3-(1H-tetrazol-5-yl)benzoyl]phenoxy}methyl)phenyl]ethanone], the “-log IC50” value stood at 8.58. Also, the “Percent inhibition of LTD4 evoked ileal contractions” value (“Percent inhibition” for short) (compound concentration 1 × 10^-9) turned out to be 21%. The “Percent inhibition” value under setting [1] turned out to be 98%. Under setting [2], the “Percent inhibition” value worked out at 80%. Under setting [3], the “Percent inhibition” value was found to be 53%.
Consider `CCCc1c(COc2ccc(C(=O)c3ccc(-c4nnn[nH]4)cc3)cc2)ccc(C(C)=O)c1O` [Example 2, 1-[2-Hydroxy-3-propyl-4-({4-[4-(1H-tetrazol-5-yl)-benzoyl]phenoxy}methyl)phenyl]ethanone], for which the “-log IC50” value is recorded as 8.29. Under setting [4], the “Percent inhibition” value worked out at 72%. Further, under setting [3], the “Percent inhibition” value was 32%.
`CCCc1c(COc2ccc(C(O)c3cccc(-c4nnn[nH]4)c3)cc2)ccc(C(C)=O)c1O` (stereo not shown) [Example 3, 1-{2-Hydroxy-4-[(4-{hydroxy[3-(1H-tetrazol-5-yl)-phenyl]methyl}phenoxy)methyl]-3-propylphenyl}ethanone]: the “-log IC50” value came to 7.89. In addition, under setting [5], the “Percent inhibition” value is given as 81%. Under setting [4], the “Percent inhibition” value is given as 40%. Further, under setting [2], the “Percent inhibition” value stood at 75%.
Regarding `CCCc1c(COc2ccc(Oc3ccc(-c4nnn[nH]4)cc3)cc2)ccc(C(C)=O)c1O` [Example 4, 1-[2-Hydroxy-3-propyl-4-({4-[4-(1H-tetrazol-5-yl)-phenoxy]phenoxy}methyl)phenyl]ethanone], the “-log IC50” value is 7.08. The “Percent inhibition” value under setting [5] amounted to 53%. Further, under setting [1], the “Percent inhibition” value was determined as 80%. Moreover, the “Percent inhibition” value under setting [2] came out at 25%.
